Results taken from patent US11965039B2, “Compstatin analogues and their medical uses” (priority 2018, dated 2024).
Positions of bridges follow the written chain, without caps; N, C: chain ends. Non-standard residues stand in square brackets, D forms with d. Residues, ends and D or L forms follow the SMILES beside them. Trp(1-Me) = Cn1cc(C[C@H](N)C(=O)O)c2ccccc21

Columns and labels:
[1] = test system: classical complement pathway; experiment: In vitro haemolysis assay (inhibition of classical complement pathway); format: cell-based, human; conditions: human serum, sensitized sheep red blood cells; Table 3, given as upper bounds; read-out: IC50, inhibition of hemolysis
Summary of the method: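 Compound dilutions preincubated 15 min at room temperature with diluted human serum (titrated per batch for 70-90% maximal haemolysis), then antibody-sensitized sheep RBC (10^7/well) added for 30 min at 37 °C in Tris/casein buffer, pH 7.4. Stopped with EDTA; haemolysis read at 405 nm; IC50 by 4PL fit.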

[2] = Solubility test at 10 mg/mL (visual inspection and light scattering); format: physicochemical
[3] = test system: alternative complement pathway; experiment: Ex vivo alternative pathway complement activity (WIESLAB kit) after s.c. dosing in non-human primates; set-up: species or system Cynomolgus monkeys (Macaca fascicularis); conditions: NHP, subcutaneous 1840 nmol/kg, FIG. 1a-f
Procedure: FIG. 1(a-f): Normalized “ex vivo” activity of the alternative complement pathway over time after administration of a test compound at time 0 to one or two non-human primates. Compounds were given subcutaneously at a dose of 1840 nmol/kg. Complement activity (alternative pathway) was measured using the Wieslab kit. Activity was normalized using the predose (0) sample (set to 100%) and the negative control included in the kit. Normalized activity or average normalized activity for both animals and standard deviation is shown.
Healthy male Cynomolgus monkeys (Macaca fascicularis) received single subcutaneous administrations of each test substance. Compounds were formulated in 20 mM phosphate adjusted with NaOH to pH 7.5 and mannitol for isotonicity and dosed at 1840 nmol/kg. Blood was collected from a femoral vein from each animal at the following times: Pre-dose, 1, 2, 4, 8, 24, 48, 72, 96 and 120 h (10 sampling times). Blood was collected into serum separation tubes and allowed to clot at room temperature. The tubes were centrifuged and resulting serum was aliquoted and snap-frozen over dry-ice and stored at nominally −80° C. until analysis. All NHP studies were performed in accordance with animal welfare laws and regulations, including approval of the study by a local ethical review process.
Serum isolated from non-human primates at specific time points after dosing were analyzed for alternative pathway complement activity using the Complement system Alternative Pathway WIESLAB® kit from Svar Life Science (previously Euro diagnostic AB, Sweden) following the manufacturer's protocol. Briefly, serum samples or controls were diluted in buffer and incubated in microtitre strips coated with specific activators of the alternative pathway. The wells were washed and formed C5b-9 was detected using included colorimetric reagents. Absorbance at 405 nm was measured. The percent activity of the alternative complement pathway was calculated for each animal and timepoint relative to the pre-dose activity (0 hours) of the individual animal with subtraction of the negative control. […]

[4] = target: T1, Human C3 (Complement tech cat #A113c) (human, UniProt P01024 23-1663); experiment: cell-based or functional assay
[5] = target: T1, Human C3 (Complement tech cat #A113c); experiment: cell-based or functional assay; remark: listed apart in the source

T1 sequence (P01024 23-1663 limits assumed): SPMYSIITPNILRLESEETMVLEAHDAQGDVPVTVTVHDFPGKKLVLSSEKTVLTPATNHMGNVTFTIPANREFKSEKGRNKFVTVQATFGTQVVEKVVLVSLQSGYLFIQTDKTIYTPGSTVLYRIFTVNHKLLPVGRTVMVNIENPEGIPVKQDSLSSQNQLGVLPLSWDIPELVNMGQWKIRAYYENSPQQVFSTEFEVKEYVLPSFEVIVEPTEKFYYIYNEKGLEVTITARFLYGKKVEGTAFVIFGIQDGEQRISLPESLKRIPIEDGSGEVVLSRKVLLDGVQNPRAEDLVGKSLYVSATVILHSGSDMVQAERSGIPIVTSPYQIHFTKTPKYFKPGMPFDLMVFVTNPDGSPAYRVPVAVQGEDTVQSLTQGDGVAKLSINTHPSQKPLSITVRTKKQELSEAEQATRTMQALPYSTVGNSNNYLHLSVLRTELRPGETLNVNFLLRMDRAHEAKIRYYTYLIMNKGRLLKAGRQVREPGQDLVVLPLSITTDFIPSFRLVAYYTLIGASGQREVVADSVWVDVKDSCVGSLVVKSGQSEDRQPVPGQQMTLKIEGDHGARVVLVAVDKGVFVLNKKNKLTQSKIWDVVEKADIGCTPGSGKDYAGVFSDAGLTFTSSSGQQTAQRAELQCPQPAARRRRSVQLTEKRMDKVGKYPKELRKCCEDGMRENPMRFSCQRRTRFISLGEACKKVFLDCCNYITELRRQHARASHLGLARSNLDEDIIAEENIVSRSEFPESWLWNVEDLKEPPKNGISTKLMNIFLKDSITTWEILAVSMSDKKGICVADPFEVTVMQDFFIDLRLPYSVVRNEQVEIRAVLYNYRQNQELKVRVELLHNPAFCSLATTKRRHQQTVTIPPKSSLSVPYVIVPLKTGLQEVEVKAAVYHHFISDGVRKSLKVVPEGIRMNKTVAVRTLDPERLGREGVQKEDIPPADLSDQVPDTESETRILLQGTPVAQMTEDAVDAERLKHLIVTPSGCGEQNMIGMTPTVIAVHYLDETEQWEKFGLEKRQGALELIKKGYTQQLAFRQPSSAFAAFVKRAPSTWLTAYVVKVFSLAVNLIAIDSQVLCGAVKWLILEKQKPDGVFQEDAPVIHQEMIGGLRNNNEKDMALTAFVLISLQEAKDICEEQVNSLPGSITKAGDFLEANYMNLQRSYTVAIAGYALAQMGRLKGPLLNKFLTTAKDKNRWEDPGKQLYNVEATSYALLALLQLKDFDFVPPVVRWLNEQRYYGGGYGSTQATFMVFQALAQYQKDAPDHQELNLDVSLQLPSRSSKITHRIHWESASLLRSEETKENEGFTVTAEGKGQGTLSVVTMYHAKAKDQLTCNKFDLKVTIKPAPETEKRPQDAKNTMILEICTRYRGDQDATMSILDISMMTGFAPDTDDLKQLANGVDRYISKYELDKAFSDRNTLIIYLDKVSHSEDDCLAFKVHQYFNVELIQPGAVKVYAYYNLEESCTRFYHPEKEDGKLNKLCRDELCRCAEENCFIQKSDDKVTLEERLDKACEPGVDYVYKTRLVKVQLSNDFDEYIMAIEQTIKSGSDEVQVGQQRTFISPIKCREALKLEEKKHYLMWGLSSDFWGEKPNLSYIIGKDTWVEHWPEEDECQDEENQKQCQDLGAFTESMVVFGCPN

Row | Molecule | IC50 [1] | Solubility, Condition 1 ([2]; Acetate pH 4) | Solubility, Condition 2 ([2]; Acetate pH 5) | Solubility, Condition 3 ([2]; Phosphate pH 6) | Solubility, Condition 4 ([2]; Phosphate pH 7) | Solubility, Condition 5 ([2]; Phosphate pH 7.5) | duration of action (alternative pathway complement activity) [3] | CP hemolysis IC50 [4] | inhibition of hemolysis IC50 [5]
1 | CC[C@H](C)[C@@H]1NC(=O)[C@@H](NC(=O)[C@H](Cc2ccccc2)NC(C)=O)CSSC[C@@H](C(=O)N[C@H](C(=O)NCC(=O)N[C@@H](C)C(=O)N[C@@H](CCC(=O)O)C(=O)N[C@@H](CO)C(N)=O)[C@@H](C)O)NC(=O)[C@H](CCCNC(=N)N)NC(=O)[C@H](Cc2c[nH]cn2)NC(=O)[C@H](CCC(=O)O)NC(=O)CNC(=O)[C@H](Cc2c[nH]c3ccccc23)NC(=O)[C@H](CC(=O)O)NC(=O)[C@H](CCC(N)=O)NC(=O)[C@H](Cc2cn(C)c3ccccc23)NC1=O [Compound 61] (Ac-FCI[Trp(1-Me)]QDWGEHRCTGAES-NH2; disulfide 2-12) | < 100 nM | − (“−” denotes lack of solubility at the given condition, as UV absorbance at 340 nm exceeds 0.1 AU and/or it is visibly turbid or contains particles) | − (“−” denotes lack of solubility at the given condition, as UV absorbance at 340 nm exceeds 0.1 AU and/or it is visibly turbid or contains particles) | + (“+” denotes solubility at the given condition, as determined by UV absorbance being less than 0.1 AU at 340 nm and the sample being clear when manually inspected) | + (“+” denotes solubility at the given condition, as determined by UV absorbance being less than 0.1 AU at 340 nm and the sample being clear when manually inspected) | + (“+” denotes solubility at the given condition, as determined by UV absorbance being less than 0.1 AU at 340 nm and the sample being clear when manually inspected) | relatively short duration of action |  | 
2 | Ac-ICIWQDWGAHRCT-NH2 (disulfide 2-12; SMILES CC[C@H](C)[C@H](NC(C)=O)C(=O)N[C@H]1CSSC[C@@H](C(=O)N[C@H](C(N)=O)[C@@H](C)O)NC(=O)[C@H](CCCNC(=N)N)NC(=O)[C@H](Cc2c[nH]cn2)NC(=O)[C@H](C)NC(=O)CNC(=O)[C@H](Cc2c[nH]c3ccccc23)NC(=O)[C@H](CC(=O)O)NC(=O)[C@H](CCC(N)=O)NC(=O)[C@H](Cc2c[nH]c3ccccc23)NC(=O)[C@H]([C@@H](C)CC)NC1=O) [Compound 1] |  |  |  |  |  |  |  | 150 nM | < 250 nM
